For orientation: EC50 means the midpoint of the concentration-response curve. A lower EC50 goes with a more potent agent.

The target of test [1] is T1, LPL (native bovine milk protein) inactivated by ANGPTL4 (Bos taurus, UniProt P11151).
T1 construct: from tissue; host or cells: bovine milk (LPL); E. coli (GST-ANGPTL4)
T1 sequence (P11151 29-478): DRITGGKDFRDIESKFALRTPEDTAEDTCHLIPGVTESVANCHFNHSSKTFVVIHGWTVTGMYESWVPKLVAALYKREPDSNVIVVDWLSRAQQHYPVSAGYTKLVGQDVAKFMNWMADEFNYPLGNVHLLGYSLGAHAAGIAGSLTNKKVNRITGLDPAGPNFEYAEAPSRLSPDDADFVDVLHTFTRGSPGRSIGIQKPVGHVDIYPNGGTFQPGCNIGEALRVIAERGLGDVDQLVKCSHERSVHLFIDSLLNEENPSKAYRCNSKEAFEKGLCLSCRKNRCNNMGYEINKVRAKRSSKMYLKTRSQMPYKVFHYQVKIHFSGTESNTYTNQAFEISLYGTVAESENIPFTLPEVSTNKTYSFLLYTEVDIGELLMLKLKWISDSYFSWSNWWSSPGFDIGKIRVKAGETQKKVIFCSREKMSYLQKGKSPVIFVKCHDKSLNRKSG
In words: LPL ANGPTL4 protection assay (LPL fluorescence assay, resorufin butyrate substrate). In kind it is biochemical. Particulars: LPL activation activity, LPL 2.5 nM, ANGPTL4 20 nM. Here is the method: LPL is inactivated by angiopoietin-like 4 (ANGPTL4). Compounds of the present disclosure were for activity using the following protection assay. Briefly, the assay was performed in a black opaque 96-well microtiter plate with final volume of 100 μL using a buffer consisting of 50 mM HEPES (pH 7.2), 150 mM NaCl and 0.03% Triton X-100. Compounds were prepared as 10 mM stocks in DMSO, with subsequent serial dilutions performed in DMSO. Two microliters of test compounds were added to the microtiter plate, followed by 49-PL of LPL (native bovine milk protein affinity purified using heparin-affinity chromatography) in assay buffer. The plate contents were mixed using an orbital shaker and allowed to incubate for 5 minutes at room temperature. The enzymatic assay was initiated by the addition of a mixture of 49 μL of 50 μM resorufin butyrate (Santa Cruz #sc-208302; prepared from a 10 mM DMSO stock) and ANGPTL4 (N-terminal GST construct consisting of residues 26-164 expressed in E. coli) in assay buffer. The final concentrations of LPL and ANGPTL4 were 2.5 nM and 20 nM, respectively. The assay was allowed to proceed at 30° C. for 25 minutes with kinetic monitoring (Ex560/Em585) followed by an endpoint reading which was used for analysis.
Data was analyzed in Graphpad Prism (version 6.0, GraphPad Software, Inc., San Diego, CA) using a variable slope four parameter fit of the equation:
Y=Bottom+(Top-Bottom)/(1+10^((Log EC50−X)*HillSlope)),
where X is the concentration of test compound, Y corresponds to the amount of product expressed in relative fluorescence units, and Top and Bottom refer to the plateaus of the curve. Percent activation (protection) of test compound was calculated relative to zero effect wells (ZEW; LPL, ANGPTL4 and substrate) and maximum effect wells (MEW; LPL plus substrate): ((test well−ZEW)/(MEW−ZEW))*100.

The test system of a further test is C57BL/6 mice. Briefly: Oral fat tolerance test (postprandial triglyceridaemia after olive oil bolus). In kind it is in vivo. Particulars: overnight-fasted C57BL/6 mice, compound IP 1 h before 10 mL/kg olive oil, bled at 1, 2 and 3.5 h. Here is the method: To examine to effects of test compounds on postprandial triglycerdemia, 5-7 week old C57BL/6 mice were fasted overnight (18 hours) on non-nutritive bedding (Alpha-Dri). Following the overnight fast, the mice are bled via retro-orbital sinus (25 μL) using microcapillaries (t-1 hr sample). The LPL activator test compound was then administered intraperitoneally (IP) in a dose volume of 10 ml/kg. One hour later the mice were bled for the t=0 timepoint. The mice were then immediately dosed with a 10 mL/kg oral bolus of olive oil. The mice were subsequently bled at 1-, 2-, and 3.5-hours post-olive oil administration.
Whole blood samples were collected into tubes containing 0.125% EDTA solution in saline. Diluted plasma samples were analyzed for triglyceride levels using Infinity Triglyceride reagent (Thermo) on a microtiter plate. Briefly, 10 μL of diluted sample was added the plate. 200 μL of the reagent was added and the plate was incubated for 10 minutes at 37° C. The plate was then read at 550 nm on a Molecular Devices M5 Spectrophotometer (San Jose, CA). The concentration of triglycerides in the sample was determined using a standard curve made using a dilution of triglyceride standard (Sigma-Aldrich, St. Louis, MO) using the Softmax software from Molecular Devices. All graphing and subsequent area under-the-curve and statistical analysis (Student's t Test) is performed using GraphPad Prism (version 8.0, GraphPad Software, Inc., San Diego, CA).

Take `Cc1ccc(NC(=O)c2cc(N3Cc4cc(-c5nnn[nH]5)ccc4C3=O)ccc2N2CCCCC2)cc1` [Compound 170, 5-(1-oxo-5-(1H-tetrazol-5-yl)isoindolin-2-yl)-2-(piperidin-1-yl)-N-(p-tolyl)benzamide]: in test [1], the EC50 was 7.98 µM. In addition, the “hypertriglyceridemia response to oral olive oil gavage (plasma triglycerides)” value (shortened to “hypertriglyceridemia response”) in the test on C57BL/6 mice is reported as “blunts hypertriglyceridemia response in a dose-dependent fashion”.

For `CCn1nc(C(=O)Nc2cc(C(=O)Nc3ccccc3CC(=O)NS(C)(=O)=O)ccc2N2CCCCC2)c2ccccc21` [Compound 172, 1-ethyl-N-(5-((2-(2-(methylsulfonamido)-2-oxoethyl)phenyl)carbamoyl)-2-(piperidin-1-yl)phenyl)-1H-indazole-3-carboxamide], in test [1], the EC50 was determined as 7.5 µM. For the same compound, the “hypertriglyceridemia response” value with C57BL/6 mice is given as “blunts hypertriglyceridemia response in a dose-dependent fashion”.

`Cn1c(C(=O)Nc2cc(C(=O)Nc3ccccc3CC(=O)O)ccc2N2CCCCC2)cc2ccccc21` [Compound 173, 2-(2-(3-(1-methyl-1H-indole-2-carboxamido)-4-(piperidin-1-yl)benzamido)phenyl)acetic acid] displayed an EC50 in test [1] of 5.85 µM. For the same compound, the “hypertriglyceridemia response” value in the test on C57BL/6 mice is “blunts hypertriglyceridemia response in a dose-dependent fashion”.

In the case of `Cn1nc(C(=O)Nc2cc(C(=O)Nc3ccccc3CC(=O)O)ccc2N2CCCCC2)c2ccccc21` [Compound 174, 2-(2-(3-(1-methyl-1H-indazole-3-carboxamido)-4-(piperidin-1-yl)benzamido)phenyl)acetic acid], the EC50 in test [1] came to 3.99 µM. Besides, the “hypertriglyceridemia response” value with C57BL/6 mice is recorded as “blunts hypertriglyceridemia response in a dose-dependent fashion”.

The compound `Cc1ccc(NC(=O)c2cc(NCc3ccc(-c4nnn[nH]4)cc3)ccc2N2CCCCC2)cc1` [Compound 175, 5-((4-(1H-tetrazol-5-yl)benzyl)amino)-2-(piperidin-1-yl)-N-(p-tolyl)benzamide] gave an EC50 in test [1] of 13.4 µM. Besides, the “hypertriglyceridemia response” value with C57BL/6 mice is on record as “blunts hypertriglyceridemia response in a dose-dependent fashion”.

In test [1], `Cc1ccc(NC(=O)c2cc(NC(=O)c3ccccc3C(=O)O)ccc2NC2CCCC2)cc1Cl` [Compound 176, 2-((3-((3-chloro-4-methylphenyl)carbamoyl)-4-(cyclopentylamino)phenyl)carbamoyl)benzoic acid] registered an EC50 of 5.74 µM. Besides, the “hypertriglyceridemia response” value with C57BL/6 mice is given as “blunts hypertriglyceridemia response in a dose-dependent fashion”.

For the origin of these results see patent publication US20250092014A1, “COMPOUNDS AND METHODS OF ACTIVATING LIPOPROTEIN LIPASE” (Metrea Biosciences, Inc., priority 2021, published 2025).
